47 substances from patent US11840686B2, “Modulation of prekallikrein (PKK) expression” (Ionis Pharmaceuticals, Inc., priority 2013, dated 2023) can be followed below.

Strand notation (5' to 3'): a small letter for the sugar, then the base; units joined by * are phosphorothioate-linked, units joined directly phosphodiester-linked; [ ] holds rarer units or linkages, { } end groups; capitals alone tell only the bases. e = 2'-O-(2-methoxyethyl) (MOE); [5mC] = 5-methylcytosine; d = 2'-deoxy (DNA)

The test system of the series is human PKK mRNA. Kind of series: Antisense inhibition of human PKK mRNA in HepaRG cells, 3,000 nM (Example 1). The settings on record: Table 2; PKK mRNA, HepaRG cells, 3,000 nM, electroporation, ~24 h, relative to untreated control cells. Format: cell-based. The method in brief:
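Values give percent PKK mRNA reduction relative to untreated controls, normalised to RIBOGREEN total RNA. mRNA was quantified by real-time PCR (RTS3454) about 24 h after electroporation. Each 20-mer MOE gapmer was delivered at 3,000 nM into 20,000 HepaRG cells per well.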
For the substance “531021 (eG*eT*e[5mC]*eT*eG*dA*d[5mC]*dA*dG*dA*dT*dT*dT*dA*dA*eA*eA*eT*eG*e[5mC]; antisense) [compound 531021]”, the % inhibition (in general, the relative decrease from the control value, in per cent) is reported as 50%.
“531023 (e[5mC]*eT*eT*eT*eT*dG*dT*dA*dA*dT*dG*dT*d[5mC]*dT*dG*eA*e[5mC]*eA*eG*eA; antisense) [compound 531023]”: the “% inhibition” value was 71%.
On to “531024 (eT*eT*eT*eA*eT*dT*dT*dG*dT*dG*dA*dG*dA*dA*dA*eG*eG*eT*eG*eT; antisense) [compound 531024]”, for which the “% inhibition” value was 69%.
“531025 (eT*e[5mC]*eT*e[5mC]*eT*dT*dT*dT*dA*dT*dT*dT*dG*dT*dG*eA*eG*eA*eA*eA; antisense) [compound 531025]”: the “% inhibition” value is 34%.
To “531027 (antisense eA*eA*eA*eG*eG*dA*dG*d[5mC]*d[5mC]*dT*dG*dG*dA*dG*dT*eT*eT*eT*eA*eT) [compound 531027]” belongs 0%; to “531028 (antisense eA*eA*eT*eT*e[5mC]*dA*dA*dA*dG*dG*dA*dG*d[5mC]*d[5mC]*dT*eG*eG*eA*eG*eT) [compound 531028]”, 56%; to “531029 (antisense eA*eG*eT*eG*eT*dA*dA*dT*dT*d[5mC]*dA*dA*dA*dG*dG*eA*eG*e[5mC]*e[5mC]*eT) [compound 531029]”, 59%.
Regarding “531030 (antisense eA*eA*eT*eT*e[5mC]*dA*dG*dT*dG*dT*dA*dA*dT*dT*d[5mC]*eA*eA*eA*eG*eG) [compound 531030]”, the “% inhibition” value came to 24%.
To “531031 (antisense eT*eT*eT*eG*eG*dA*dA*dT*dT*d[5mC]*dA*dG*dT*dG*dT*eA*eA*eT*eT*e[5mC]) [compound 531031]” belongs 59%; to “531032 (antisense eT*eG*eG*eT*eT*dT*dT*dT*dG*dG*dA*dA*dT*dT*d[5mC]*eA*eG*eT*eG*eT) [compound 531032]”, 67%.
Regarding “531033 (antisense eA*eT*eT*eG*eG*dT*dT*dT*dT*dT*dG*dG*dA*dA*dT*eT*e[5mC]*eA*eG*eT) [compound 531033]”, the “% inhibition” value is reported as 53%.
To “531034 (antisense e[5mC]*eA*eT*eA*eT*dT*dG*dG*dT*dT*dT*dT*dT*dG*dG*eA*eA*eT*eT*e[5mC]) [compound 531034]” belongs 36%; to “531035 (antisense eG*eT*eA*eG*eG*d[5mC]*dA*dT*dA*dT*dT*dG*dG*dT*dT*eT*eT*eT*eG*eG) [compound 531035]”, 46%.
For the substance “531036 (antisense eG*eT*eG*eT*e[5mC]*dA*d[5mC]*d[5mC]*dT*dT*dT*dG*dG*dA*dA*eG*eG*eT*eA*eG) [compound 531036]”, the “% inhibition” value turned out to be 71%.
Take “531037 (antisense eA*eA*e[5mC]*eA*eG*dT*dT*dG*dG*dT*dA*dT*dA*dA*dA*eT*eT*eG*eT*eG) [compound 531037]”: the “% inhibition” value is given as 35%.
With “531038 (antisense e[5mC]*eA*eA*e[5mC]*eA*dG*dT*dT*dG*dG*dT*dA*dT*dA*dA*eA*eT*eT*eG*eT) [compound 531038]”, the “% inhibition” value was 22%.
As for “531039 (antisense eT*eA*e[5mC]*e[5mC]*e[5mC]*dA*dA*d[5mC]*dA*dG*dT*dT*dG*dG*dT*eA*eT*eA*eA*eA) [compound 531039]”, the “% inhibition” value was found to be 36%.
Regarding “531040 (antisense eT*e[5mC]*e[5mC]*eT*eT*d[5mC]*dG*dA*dG*dA*dA*dG*d[5mC]*d[5mC]*d[5mC]*e[5mC]*eA*eT*e[5mC]*e[5mC]) [compound 531040]”, the “% inhibition” value is on record as 27%.
For the substance “531041 (antisense eA*eA*eA*eG*eG*dA*dA*dT*dA*dT*dT*dT*dA*d[5mC]*d[5mC]*eT*eT*eT*eT*eG) [compound 531041]”, the “% inhibition” value was found to be 68%.
With “531042 (antisense eT*eT*eA*e[5mC]*e[5mC]*dA*dA*dA*dG*dG*dA*dA*dT*dA*dT*eT*eT*eA*e[5mC]*e[5mC]) [compound 531042]” the figure was 11%.
Take “531043 (antisense eA*eT*eT*eT*eG*dT*dT*dA*d[5mC]*d[5mC]*dA*dA*dA*dG*dG*eA*eA*eT*eA*eT) [compound 531043]”: the “% inhibition” value is 27%.
“531044 (antisense eG*eG*e[5mC]*eA*eT*dT*d[5mC]*dT*dT*d[5mC]*dA*dT*dT*dT*dG*eT*eT*eA*e[5mC]*e[5mC]) [compound 531044]”: the “% inhibition” value is 68%.
“531045 (antisense eT*eT*eT*e[5mC]*eT*dG*dG*d[5mC]*dA*dT*dT*d[5mC]*dT*dT*d[5mC]*eA*eT*eT*eT*eG) [compound 531045]”: the “% inhibition” value stood at 37%.
For the substance “531046 (antisense eG*eA*eT*eA*eT*d[5mC]*dT*dT*dT*dT*d[5mC]*dT*dG*dG*d[5mC]*eA*eT*eT*e[5mC]*eT) [compound 531046]”, the “% inhibition” value is listed as 54%.
“531047 (antisense eA*eT*e[5mC]*eT*eT*dG*dA*dT*dA*dT*d[5mC]*dT*dT*dT*dT*e[5mC]*eT*eG*eG*e[5mC]) [compound 531047]”: the “% inhibition” value is on record as 68%.
With “531048 (antisense eT*eT*eA*eT*eA*dA*dT*d[5mC]*dT*dT*dG*dA*dT*dA*dT*e[5mC]*eT*eT*eT*eT) [compound 531048]” the figure was 42%.
Turning to “531049 (antisense eT*eT*eA*eT*eT*dT*dT*dA*dT*dA*dA*dT*d[5mC]*dT*dT*eG*eA*eT*eA*eT) [compound 531049]”, the “% inhibition” value is 2%.
Consider “531050 (antisense eT*eT*eG*eG*eG*dT*dT*dA*dT*dT*dT*dT*dA*dT*dA*eA*eT*e[5mC]*eT*eT) [compound 531050]”, for which the “% inhibition” value was 18%.
As for “531051 (antisense eA*eT*e[5mC]*e[5mC]*eG*dT*dT*dG*dG*dG*dT*dT*dA*dT*dT*eT*eT*eA*eT*eA) [compound 531051]”, the “% inhibition” value is 51%.
Consider “531052 (antisense eA*eG*eA*e[5mC]*e[5mC]*dA*dT*d[5mC]*d[5mC]*dG*dT*dT*dG*dG*dG*eT*eT*eA*eT*eT) [compound 531052]”, for which the “% inhibition” value stood at 60%.
To “531053 (antisense eA*eG*e[5mC]*eA*e[5mC]*dA*dG*dA*d[5mC]*d[5mC]*dA*dT*d[5mC]*d[5mC]*dG*eT*eT*eG*eG*eG) [compound 531053]” belongs 49%; to “531054 (antisense e[5mC]*eT*eT*eT*eA*dT*dA*dG*d[5mC]*d[5mC]*dA*dG*d[5mC]*dA*d[5mC]*eA*eG*eA*e[5mC]*e[5mC]) [compound 531054]”, 48%; to “531056 (antisense eT*eT*eT*e[5mC]*e[5mC]*d[5mC]*d[5mC]*d[5mC]*dT*dT*d[5mC]*dT*dT*dT*dA*eT*eA*eG*e[5mC]*e[5mC]) [compound 531056]”, 45%.
For “531057 (antisense e[5mC]*eA*eT*e[5mC]*eT*dT*dT*dT*d[5mC]*d[5mC]*d[5mC]*d[5mC]*d[5mC]*dT*dT*e[5mC]*eT*eT*eT*eA) [compound 531057]”, the “% inhibition” value is given as 48%.
With “531058 (antisense e[5mC]*e[5mC]*e[5mC]*eT*eT*dA*d[5mC]*dA*dA*dG*d[5mC]*dA*dT*d[5mC]*dT*eT*eT*eT*e[5mC]*e[5mC]) [compound 531058]” the figure was 60%; with “531059 (antisense eA*e[5mC]*eA*eT*eT*d[5mC]*d[5mC]*dA*dT*dT*dG*dT*dG*dT*dT*eT*eG*e[5mC]*eA*eA) [compound 531059]”, 55%.
To “531060 (antisense eT*eG*eG*eT*eG*dA*dT*dG*d[5mC]*d[5mC]*d[5mC]*dA*d[5mC]*d[5mC]*dA*eA*eA*e[5mC]*eG*e[5mC]) [compound 531060]” belongs 35%; to “531061 (antisense eT*eG*e[5mC]*eT*e[5mC]*d[5mC]*d[5mC]*dT*dG*d[5mC]*dG*dG*dG*d[5mC]*dA*e[5mC]*eA*eG*e[5mC]*e[5mC]) [compound 531061]”, 52%; to “531062 (antisense e[5mC]*eA*eG*eG*eT*dT*dG*d[5mC]*dT*d[5mC]*d[5mC]*d[5mC]*dT*dG*d[5mC]*eG*eG*eG*e[5mC]*eA) [compound 531062]”, 39%.
With “531063 (antisense eG*eA*e[5mC]*eA*e[5mC]*d[5mC]*dA*dG*dG*dT*dT*dG*d[5mC]*dT*d[5mC]*e[5mC]*e[5mC]*eT*eG*e[5mC]) [compound 531063]” the figure was 51%; with “531064 (antisense eG*eT*eG*eT*eA*dG*dA*d[5mC]*dA*d[5mC]*d[5mC]*dA*dG*dG*dT*eT*eG*e[5mC]*eT*e[5mC]) [compound 531064]”, 56%; with “531065 (antisense e[5mC]*eT*eT*eT*eG*dG*dT*dG*dT*dA*dG*dA*d[5mC]*dA*d[5mC]*e[5mC]*eA*eG*eG*eT) [compound 531065]”, 57%.
As for “531066 (eA*eG*e[5mC]*eG*eA*d[5mC]*dT*dT*dT*dG*dG*dT*dG*dT*dA*eG*eA*e[5mC]*eA*e[5mC]; antisense) [compound 531066]”, the “% inhibition” value is on record as 67%.
On to “531067 (eT*eA*e[5mC]*eT*e[5mC]*dA*dG*d[5mC]*dG*dA*d[5mC]*dT*dT*dT*dG*eG*eT*eG*eT*eA; antisense) [compound 531067]”, for which the “% inhibition” value worked out at 31%.
With “531068 (e[5mC]*e[5mC]*eA*eT*eG*dT*dA*d[5mC]*dT*d[5mC]*dA*dG*d[5mC]*dG*dA*e[5mC]*eT*eT*eT*eG; antisense) [compound 531068]” the figure was 59%; with “531070 (e[5mC]*eT*eG*eT*eG*dT*dT*dT*dT*d[5mC]*dT*d[5mC]*dT*dA*dA*eA*eA*eT*e[5mC]*e[5mC]; antisense) [compound 531070]”, 68%.
With “531072 (eG*e[5mC]*eT*e[5mC]*eA*dG*dA*dA*dT*dT*dT*dG*dA*d[5mC]*dT*eT*eG*eA*eA*e[5mC]; antisense) [compound 531072]” the figure was 64%.
